Measurements as given in ChEMBL document CHEMBL5126584, “Synthesis of AC1903 analogs as potent transient receptor potential canonical channel 4/5 inhibitors and biological evaluation” (Bioorg Med Chem, 2022).
Activity calls are given as the source filed them. The calls are words filed in the database; no cut-off is given here.

Columns and labels:
[1] = molecular target: T1, Short transient receptor potential channel 5 (Homo sapiens, UniProt Q9UL62); assay: Inhibition of human TRPC5 channel expressed in HEK293 cells assessed as inhibition of EA-evoked Calcium influx by measuring reduction in intracellular Ca2+ level and measured upto 360 sec by Fluo-4/AM dye based FLIPR assay; assay type: cell-based
T1 sequence (Q9UL62 whole entry): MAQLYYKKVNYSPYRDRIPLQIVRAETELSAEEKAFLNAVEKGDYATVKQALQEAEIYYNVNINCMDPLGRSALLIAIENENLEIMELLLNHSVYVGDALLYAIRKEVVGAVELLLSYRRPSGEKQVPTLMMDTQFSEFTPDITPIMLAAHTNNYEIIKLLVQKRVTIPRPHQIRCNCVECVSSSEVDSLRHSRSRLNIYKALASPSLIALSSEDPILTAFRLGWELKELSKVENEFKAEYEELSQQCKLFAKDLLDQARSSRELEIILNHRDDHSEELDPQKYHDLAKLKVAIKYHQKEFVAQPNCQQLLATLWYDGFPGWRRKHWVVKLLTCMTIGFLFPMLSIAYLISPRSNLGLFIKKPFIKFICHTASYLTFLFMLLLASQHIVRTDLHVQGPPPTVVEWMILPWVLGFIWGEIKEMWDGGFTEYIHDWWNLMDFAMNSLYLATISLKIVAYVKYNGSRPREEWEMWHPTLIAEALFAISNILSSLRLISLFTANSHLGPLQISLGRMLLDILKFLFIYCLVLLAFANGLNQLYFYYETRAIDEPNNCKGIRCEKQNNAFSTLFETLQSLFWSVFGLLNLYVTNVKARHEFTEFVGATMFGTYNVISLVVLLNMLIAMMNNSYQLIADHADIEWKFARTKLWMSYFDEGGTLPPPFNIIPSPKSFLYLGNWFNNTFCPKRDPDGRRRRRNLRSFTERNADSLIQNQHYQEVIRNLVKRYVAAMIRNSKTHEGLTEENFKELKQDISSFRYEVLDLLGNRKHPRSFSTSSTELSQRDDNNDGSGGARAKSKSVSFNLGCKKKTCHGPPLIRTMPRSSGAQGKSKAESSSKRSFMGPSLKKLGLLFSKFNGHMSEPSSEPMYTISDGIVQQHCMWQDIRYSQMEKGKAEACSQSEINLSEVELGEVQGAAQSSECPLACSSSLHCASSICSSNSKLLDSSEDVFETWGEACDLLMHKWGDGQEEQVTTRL

[2] = system: HaCaT; assay: Inhibition of IL-17 induced inflammation in human HaCaT cells assessed as reduction in IL-6 mRNA level at 0.3 to 3 uM by qRT-PCR analysis; assay type: functional, cell-based; conditions: dose 0.3-3 µM
[3] = system: HaCaT; assay: Inhibition of IL-17 induced cell proliferation in human HaCaT cells assessed as decrease in BrdU positive (BrdU+) cells at 0.3 to 3 uM and measured after 24 hrs by BrdU incorporation assay; assay type: functional, cell-based; conditions: dose 0.3-3 µM
[4] = molecular target: T2, Short transient receptor potential channel 4 (Homo sapiens, UniProt Q9UBN4); assay: Inhibition of human TRPC4 channel expressed in HEK293 cells assessed as inhibition of EA-evoked Calcium influx by measuring reduction in intracellular Ca2+ level and measured upto 360 sec by Fluo-4/AM dye based FLIPR assay; assay type: cell-based
T2 sequence (Q9UBN4 whole entry): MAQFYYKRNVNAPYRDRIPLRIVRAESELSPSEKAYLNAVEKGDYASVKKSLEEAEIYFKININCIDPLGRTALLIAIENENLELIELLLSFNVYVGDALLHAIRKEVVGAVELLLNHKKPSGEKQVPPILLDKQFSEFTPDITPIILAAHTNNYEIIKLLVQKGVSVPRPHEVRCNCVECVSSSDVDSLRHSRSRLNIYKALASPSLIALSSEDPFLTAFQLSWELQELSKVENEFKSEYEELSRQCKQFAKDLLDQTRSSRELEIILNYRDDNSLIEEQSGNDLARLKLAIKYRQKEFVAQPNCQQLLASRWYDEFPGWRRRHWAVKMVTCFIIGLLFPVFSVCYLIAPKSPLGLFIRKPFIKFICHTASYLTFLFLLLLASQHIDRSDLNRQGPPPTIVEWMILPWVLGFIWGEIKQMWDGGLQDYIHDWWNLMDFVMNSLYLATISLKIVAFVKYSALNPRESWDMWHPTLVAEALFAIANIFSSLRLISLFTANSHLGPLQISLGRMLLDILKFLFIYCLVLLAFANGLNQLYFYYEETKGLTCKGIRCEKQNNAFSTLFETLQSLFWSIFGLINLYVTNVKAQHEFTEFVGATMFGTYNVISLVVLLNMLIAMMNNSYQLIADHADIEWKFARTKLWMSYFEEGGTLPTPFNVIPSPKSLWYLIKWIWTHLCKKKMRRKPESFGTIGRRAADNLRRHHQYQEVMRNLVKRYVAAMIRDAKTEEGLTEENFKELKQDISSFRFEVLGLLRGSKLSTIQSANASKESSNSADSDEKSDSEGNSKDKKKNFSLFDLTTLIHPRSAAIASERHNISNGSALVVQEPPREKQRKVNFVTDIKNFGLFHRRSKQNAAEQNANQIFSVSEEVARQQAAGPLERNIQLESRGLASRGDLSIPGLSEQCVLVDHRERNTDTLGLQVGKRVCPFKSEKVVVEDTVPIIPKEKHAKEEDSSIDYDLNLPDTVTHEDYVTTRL

[5] = system: HaCaT; assay: Inhibition of IL-17 induced inflammation in human HaCaT cells assessed as reduction in IL-8 mRNA level at 0.3 to 3 uM by qRT-PCR analysis; assay type: functional, cell-based; conditions: dose 0.3-3 µM
[6] = system: HaCaT; assay: Inhibition of IL-17 induced inflammation in human HaCaT cells assessed as reduction in CCL-20 mRNA level at 0.3 to 3 uM by qRT-PCR analysis; assay type: functional, cell-based; conditions: dose 0.3-3 µM
[7] = system: MPC-5; assay: Protective effect against protamine sulfate induced cytoskeleton rearrangement in mouse MPC-5 cell assessed as reduction in aggregated stress fibers at 1 to 3 uM pretreatment followed by PS stimulation and measured after 2 hrs by phalloidin and Hoechst 33342 staining based fluorescence analysis; assay type: functional; conditions: dose 1-3 µM
[8] = system: MPC-5; assay: Protective effect against protamine sulfate induced cytoskeleton rearrangement in mouse MPC-5 cell assessed as reduction in aggregated stress fibers at 10 uM pretreatment followed by PS stimulation and measured after 2 hrs by phalloidin and Hoechst 33342 staining based fluorescence analysis; assay type: functional
[9] = system: HaCaT; assay: Inhibition of IL-17 induced cell proliferation in human HaCaT cells assessed as decrease in BrdU positive (BrdU+) cells at 10 uM and measured after 24 hrs by BrdU incorporation assay; assay type: functional, cell-based

Row | Compound | IC50 [1] | other results
1 | CC(C)c1ccc2c(c1)nc(NCc1ccco1)n2Cc1ccccc1 | 570 nM | –
2 | C#Cc1ccc2c(c1)nc(NCc1ccco1)n2Cc1ccccc1 | > 10000 nM | –
3 | c1ccc(Cn2c(NCc3ccco3)nc3cc(C4CC4)ccc32)cc1 | 820 nM | –
4 | CCc1ccc2c(c1)nc(NCc1ccco1)n2Cc1ccccc1 | 540 nM | inhibition [2]: Active; inhibition [3]: Active; IC50 [4]: 2060 nM; inhibition [5]: Active; inhibition [6]: Active; Activity [7]: Active
5 | CCc1ccc2c(c1)nc(N1CCOCC1)n2Cc1ccccc1 | > 10000 nM | –
6 | CCc1ccc(Cn2c(NCc3ccco3)nc3cc(CC)ccc32)cc1 | 2300 nM | –
7 | CCc1ccc2c(c1)nc(N1CC3CCC(C1)O3)n2Cc1ccccc1 | > 10000 nM | –
8 | CCc1ccc2c(c1)nc(N1CCC(C)CC1)n2Cc1ccccc1 | > 10000 nM | –
9 | CCc1ccc2c(c1)nc(NCc1ccc(C#N)o1)n2Cc1ccccc1 | > 10000 nM | –
10 | CCCc1ccc2c(c1)nc(NCc1ccco1)n2Cc1ccccc1 | 1340 nM | –
11 | Oc1ccc2c(c1)nc(NCc1ccco1)n2Cc1ccccc1 | > 10000 nM | –
12 | CCc1ccc2c(c1)nc(N1CCC3(CCCO3)CC1)n2Cc1ccccc1 | > 10000 nM | –
13 | Cc1ccc2nc(NCc3ccco3)n(Cc3ccccc3)c2c1 | > 10000 nM | –
14 | CCc1ccc2c(c1)nc(N1CCN(C)CC1)n2Cc1ccccc1 | > 10000 nM | –
15 | CCc1ccc2c(c1)nc(NCC1CCCO1)n2Cc1ccccc1 (stereo not given) | 1820 nM | –
16 | CCc1ccc2c(c1)nc(NCCN1CCCCC1)n2Cc1ccccc1 | 3350 nM | –
17 | CCc1ccc2c(c1)nc(NCc1ccco1)n2Cc1ccc(C(F)(F)F)cc1 | 1350 nM | –
18 | CCc1ccc2c(c1)nc(NCc1ccccn1)n2Cc1ccccc1 | 3130 nM | –

Row | Compound | IC50 [1] | other results
19 | C=Cc1ccc2c(c1)nc(NCc1ccco1)n2Cc1ccccc1 | > 10000 nM | –
20 | CCc1ccc2c(c1)nc(NCc1ccco1)n2Cc1ccc(C)cc1 | 4630 nM | –
21 | CCc1ccc2c(c1)nc(NCc1ccco1)n2Cc1ccccc1C(F)(F)F | > 10000 nM | –
22 | CCc1ccc2c(c1)nc(NCc1ccc(C)o1)n2Cc1ccccc1 | 2930 nM | –
23 | CCc1ccc2c(c1)nc(NCC1CCOC1)n2Cc1ccccc1 (stereo not given) | 2270 nM | –
24 | CCc1ccc2c(c1)nc(NCc1ccco1)n2Cc1ccc(OC(F)(F)F)cc1 | 920 nM | –
25 | CCc1ccc2c(c1)nc(NCc1ccco1)n2Cc1ccc(OC)cc1 | 2210 nM | –
26 | CCc1ccc2c(c1)nc(NCCc1ccncc1)n2Cc1ccccc1 | 2950 nM | –
27 | CCc1ccc2c(c1)nc(NCc1cccs1)n2Cc1ccccc1 | 2410 nM | –
28 | CCc1ccc2nc(NCc3ccco3)n(Cc3ccccc3)c2c1 | > 10000 nM | –
29 | CCc1ccc2c(c1)nc(NCc1ccc(Cl)o1)n2Cc1ccccc1 | 2210 nM | –
30 | CCc1ccc2c(c1)nc(NCCc1ccco1)n2Cc1ccccc1 | 1020 nM | –
31 | c1ccc(Cn2c(NCc3ccco3)nc3ccccc32)cc1 | 65000 nM | IC50 [4]: 77200 nM; Activity [8]: Active; inhibition [9]: Active
32 | CCc1ccc2c(c1)nc(NCc1ccco1)n2Cc1ccc(F)cc1 | 960 nM | –
33 | CCc1ccc2c(c1)nc(NCc1ccco1)n2Cc1cccc(C(F)(F)F)c1 | 2240 nM | –
34 | CCc1ccc2c(c1)nc(NCCN1CCOCC1)n2Cc1ccccc1 | 2640 nM | –
35 | Cc1ccc2c(c1)nc(NCc1ccco1)n2Cc1ccccc1 | 670 nM | –
36 | CCc1ccc2c(c1)nc(N1CC3(COC3)C1)n2Cc1ccccc1 | > 10000 nM | –
